Results reported in patent US6337417B1, “N-phenyltetrahydrophthalamic acid derivatives, methods of producing same, and herbicides containing same as effective components” (Central Glass Co., Ltd., priority 1994, dated 2002).

What was measured:
Format in all cases: in vivo
Set-up in all cases: key: 5: completely killed; 4: seriously injured; 3: considerably injured; 2: somewhat injured; 1: slightly injured; 0: not injured (normally grown)
[1] = test system: hotarui (bulrush, Scirpus juncoides); assay: Experiment 4 flooded soil treatment: hotarui; details: 4 weeks after treatment
Excerpt: (§1) Paddy soil (clay loam) was put into a pot so as to have a surface area of 1/15500 ares. Uniformly mixed seeds of several kinds of weeds, viz., nobie (barnyardgrass, Echinochloa spp.), broad-leaved weeds, hotarui (bulrush, Scirpus juncoides) and tamagayatsuri (small-flowered umbrellaplant, Cyperus difformis), were sown in the surface layer of the soil in each pot, and then paddy rice seedlings at the two- or three-leaved stage were transplanted into each pot to a depth of 2 cm, and water was fed into each pot so as to provide a 3 cm deep water layer on the soil surface. After 3 days, in other words at the initial stage of germination of nobie (barnyardgrass, Echinochloa spp.), a predetermined amount of a selected compound obtained in a manner analogous to Example 11 in the form of diluted aqueous solution was dropped into the water layer in each pot. After that, the pots were kept in a glass chamber to allow the paddy rice and the weeds to grow, and after the lapse of 4 weeks from the treatment with the selected compounds, the herbicidal effects and the degree of injury to the paddy rice were evaluated. The evaluation of the herbicidal effects was similarly conducted as to that of Experiment 1.

garden radish = assay: Experiment 5 foliage treatment: garden radish; details: foliage spray of wettable powder suspension, evaluated 4 weeks after treatment
Description: (§2) Upon seedling stage (two- or three-leaved stage) of rice, cockspur (Panicum crus-galli), garden radish, aobiyu (slender amaranth, Amaranthus viridis) and mehishiba (henry crabgrass, Digitaria cliaris) which were grown on a cultivated soil put in pots of 1/15500 ares, a selected compound obtained in a manner analogous to Example 11, in suspended wettable powder, was sprayed to each plant. After that, the pots were kept in a glass chamber to allow each plant to grow, and after the lapse of 4 weeks from the treatment with the selected compounds the herbicidal effects were evaluated. The evaluation of the herbicidal effects was similarly conducted as that of Experiment 1.

rice = assay: Experiment 5 foliage treatment: rice; details: foliage spray of wettable powder suspension, evaluated 4 weeks after treatment
Description: as §2

[2] = test system: mehishiba (henry crabgrass, Digitaria cliaris); assay: Experiment 5 foliage treatment: mehishiba; details: foliage spray of wettable powder suspension, evaluated 4 weeks after treatment
Description: as §2

[3] = test system: aobiyu (slender amaranth, Amaranthus viridis); assay: Experiment 5 foliage treatment: aobiyu; details: foliage spray of wettable powder suspension, evaluated 4 weeks after treatment
Description: as §2

broad-leaved weeds = assay: Experiment 4 flooded soil treatment: broad-leaved weeds; details: 4 weeks after treatment
Excerpt: as §1

paddy rice = assay: Experiment 4 flooded soil treatment: injury to paddy rice; details: 4 weeks after treatment
Excerpt: as §1

[4] = test system: cockspur (Panicum crus-galli); assay: Experiment 5 foliage treatment: cockspur; details: foliage spray of wettable powder suspension, evaluated 4 weeks after treatment
Description: as §2

[5] = test system: nobie (barnyardgrass, Echinochloa spp.); assay: Experiment 4 flooded soil treatment: nobie; details: 4 weeks after treatment
Excerpt: as §1

[6] = test system: tamagayatsuri (small-flowered umbrellaplant, Cyperus difformis); assay: Experiment 4 flooded soil treatment: tamagayatsuri; details: 4 weeks after treatment
Excerpt: as §1

COC(=O)C1=C(C(=O)N(C(=O)c2cccnc2)c2cc(OC(C)C)c(Cl)cc2F)CCCC1 [compound 56]
Herbicidal Effect hotarui ([1]; 3.13 g/10a): 5 | Herbicidal Effect hotarui ([1]; 6.25 g/10a): 5 | Herbicidal Effect garden radish (garden radish; 40 g/10a): 5 | Herbicidal Effect garden radish (garden radish; 80 g/10a): 5 | Herbicidal Effect rice (rice; 40 g/10a): 1 | Herbicidal Effect rice (rice; 80 g/10a): 1 | Herbicidal Effect mehishiba ([2]; 40 g/10a): 1 | Herbicidal Effect mehishiba ([2]; 80 g/10a): 1 | Herbicidal Effect aobiyu ([3]; 40 g/10a): 5 | Herbicidal Effect aobiyu ([3]; 80 g/10a): 5 | Herbicidal Effect broad-leaved weed (broad-leaved weeds; 3.13 g/10a): 4.5 | Herbicidal Effect broad-leaved weed (broad-leaved weeds; 6.25 g/10a): 5 | Injury of Paddy (paddy rice; 3.13 g/10a): 0.5 | Injury of Paddy (paddy rice; 6.25 g/10a): 0.5 | Herbicidal Effect cockspur ([4]; 40 g/10a): 1 | Herbicidal Effect cockspur ([4]; 80 g/10a): 1 | Herbicidal Effect nobie ([5]; 3.13 g/10a): 5 | Herbicidal Effect nobie ([5]; 6.25 g/10a): 5 | Herbicidal Effect tamagayatsuri ([6]; 3.13 g/10a): 5 | Herbicidal Effect tamagayatsuri ([6]; 6.25 g/10a): 5

C#CCOC(=O)C1=C(C(=O)N(C(=O)c2cccnc2)c2cc(OC(C)C#C)c(Cl)cc2F)CCCC1 (centres unmarked) [compound 61]
Herbicidal Effect hotarui ([1]; 3.13 g/10a): 4 | Herbicidal Effect hotarui ([1]; 6.25 g/10a): 4 | Herbicidal Effect garden radish (garden radish; 40 g/10a): 5 | Herbicidal Effect garden radish (garden radish; 80 g/10a): 5 | Herbicidal Effect rice (rice; 40 g/10a): 3 | Herbicidal Effect rice (rice; 80 g/10a): 4 | Herbicidal Effect mehishiba ([2]; 40 g/10a): 4.5 | Herbicidal Effect mehishiba ([2]; 80 g/10a): 5 | Herbicidal Effect aobiyu ([3]; 40 g/10a): 5 | Herbicidal Effect aobiyu ([3]; 80 g/10a): 5 | Herbicidal Effect broad-leaved weed (broad-leaved weeds; 3.13 g/10a): 5 | Herbicidal Effect broad-leaved weed (broad-leaved weeds; 6.25 g/10a): 5 | Injury of Paddy (paddy rice; 3.13 g/10a): 0 | Injury of Paddy (paddy rice; 6.25 g/10a): 0.5 | Herbicidal Effect cockspur ([4]; 40 g/10a): 2 | Herbicidal Effect cockspur ([4]; 80 g/10a): 2 | Herbicidal Effect nobie ([5]; 3.13 g/10a): 5 | Herbicidal Effect nobie ([5]; 6.25 g/10a): 5 | Herbicidal Effect tamagayatsuri ([6]; 3.13 g/10a): 5 | Herbicidal Effect tamagayatsuri ([6]; 6.25 g/10a): 5

COCCOC(=O)C1=C(C(=O)N(C(=O)c2cccnc2)c2cc(C(=O)OC)c(Cl)cc2F)CCCC1 [compound 65]
Herbicidal Effect hotarui ([1]; 3.13 g/10a): 4 | Herbicidal Effect hotarui ([1]; 6.25 g/10a): 4 | Herbicidal Effect garden radish (garden radish; 40 g/10a): 5 | Herbicidal Effect garden radish (garden radish; 80 g/10a): 5 | Herbicidal Effect rice (rice; 40 g/10a): 1 | Herbicidal Effect rice (rice; 80 g/10a): 1 | Herbicidal Effect mehishiba ([2]; 40 g/10a): 1 | Herbicidal Effect mehishiba ([2]; 80 g/10a): 1 | Herbicidal Effect aobiyu ([3]; 40 g/10a): 5 | Herbicidal Effect aobiyu ([3]; 80 g/10a): 5 | Herbicidal Effect broad-leaved weed (broad-leaved weeds; 3.13 g/10a): 5 | Herbicidal Effect broad-leaved weed (broad-leaved weeds; 6.25 g/10a): 5 | Injury of Paddy (paddy rice; 3.13 g/10a): 0 | Injury of Paddy (paddy rice; 6.25 g/10a): 0 | Herbicidal Effect cockspur ([4]; 40 g/10a): 1 | Herbicidal Effect cockspur ([4]; 80 g/10a): 1 | Herbicidal Effect nobie ([5]; 3.13 g/10a): 5 | Herbicidal Effect nobie ([5]; 6.25 g/10a): 5 | Herbicidal Effect tamagayatsuri ([6]; 3.13 g/10a): 4 | Herbicidal Effect tamagayatsuri ([6]; 6.25 g/10a): 4

C#CC(C)Oc1cc(N(C(=O)C2=C(C(=O)OCCOC)CCCC2)C(=O)c2cccnc2)c(Cl)cc1Cl (centres unmarked) [compound 71]
Herbicidal Effect hotarui ([1]; 3.13 g/10a): 4 | Herbicidal Effect hotarui ([1]; 6.25 g/10a): 4 | Herbicidal Effect garden radish (garden radish; 40 g/10a): 4 | Herbicidal Effect garden radish (garden radish; 80 g/10a): 5 | Herbicidal Effect rice (rice; 40 g/10a): 1 | Herbicidal Effect rice (rice; 80 g/10a): 1 | Herbicidal Effect mehishiba ([2]; 40 g/10a): 2 | Herbicidal Effect mehishiba ([2]; 80 g/10a): 2 | Herbicidal Effect aobiyu ([3]; 40 g/10a): 5 | Herbicidal Effect aobiyu ([3]; 80 g/10a): 5 | Herbicidal Effect broad-leaved weed (broad-leaved weeds; 3.13 g/10a): 5 | Herbicidal Effect broad-leaved weed (broad-leaved weeds; 6.25 g/10a): 5 | Injury of Paddy (paddy rice; 3.13 g/10a): 0 | Injury of Paddy (paddy rice; 6.25 g/10a): 0 | Herbicidal Effect cockspur ([4]; 40 g/10a): 1 | Herbicidal Effect cockspur ([4]; 80 g/10a): 1 | Herbicidal Effect nobie ([5]; 3.13 g/10a): 5 | Herbicidal Effect nobie ([5]; 6.25 g/10a): 5 | Herbicidal Effect tamagayatsuri ([6]; 3.13 g/10a): 5 | Herbicidal Effect tamagayatsuri ([6]; 6.25 g/10a): 5

C#CC(C)Oc1cc(N(C(=O)C2=C(C(=O)OC(C)C)CCCC2)C(=O)c2ccc(Cl)nc2)c(F)cc1Cl (centres unmarked) [compound 68]
Herbicidal Effect hotarui ([1]; 3.13 g/10a): 4 | Herbicidal Effect hotarui ([1]; 6.25 g/10a): 4.5 | Herbicidal Effect garden radish (garden radish; 40 g/10a): 5 | Herbicidal Effect garden radish (garden radish; 80 g/10a): 5 | Herbicidal Effect rice (rice; 40 g/10a): 1 | Herbicidal Effect rice (rice; 80 g/10a): 1 | Herbicidal Effect mehishiba ([2]; 40 g/10a): 1 | Herbicidal Effect mehishiba ([2]; 80 g/10a): 1 | Herbicidal Effect aobiyu ([3]; 40 g/10a): 5 | Herbicidal Effect aobiyu ([3]; 80 g/10a): 5 | Herbicidal Effect broad-leaved weed (broad-leaved weeds; 3.13 g/10a): 5 | Herbicidal Effect broad-leaved weed (broad-leaved weeds; 6.25 g/10a): 5 | Injury of Paddy (paddy rice; 3.13 g/10a): 0 | Injury of Paddy (paddy rice; 6.25 g/10a): 0.5 | Herbicidal Effect cockspur ([4]; 40 g/10a): 1 | Herbicidal Effect cockspur ([4]; 80 g/10a): 1 | Herbicidal Effect nobie ([5]; 3.13 g/10a): 5 | Herbicidal Effect nobie ([5]; 6.25 g/10a): 5 | Herbicidal Effect tamagayatsuri ([6]; 3.13 g/10a): 5 | Herbicidal Effect tamagayatsuri ([6]; 6.25 g/10a): 5

CCCCOC(=O)c1cc(N(C(=O)C2=C(C(=O)OC)CCCC2)C(=O)c2cccnc2)c(F)cc1Cl [compound 66]
Herbicidal Effect hotarui ([1]; 3.13 g/10a): 4 | Herbicidal Effect hotarui ([1]; 6.25 g/10a): 4 | Herbicidal Effect garden radish (garden radish; 40 g/10a): 4.5 | Herbicidal Effect garden radish (garden radish; 80 g/10a): 5 | Herbicidal Effect rice (rice; 40 g/10a): 1 | Herbicidal Effect rice (rice; 80 g/10a): 1 | Herbicidal Effect mehishiba ([2]; 40 g/10a): 1 | Herbicidal Effect mehishiba ([2]; 80 g/10a): 2 | Herbicidal Effect aobiyu ([3]; 40 g/10a): 5 | Herbicidal Effect aobiyu ([3]; 80 g/10a): 5 | Herbicidal Effect broad-leaved weed (broad-leaved weeds; 3.13 g/10a): 5 | Herbicidal Effect broad-leaved weed (broad-leaved weeds; 6.25 g/10a): 5 | Injury of Paddy (paddy rice; 3.13 g/10a): 0 | Injury of Paddy (paddy rice; 6.25 g/10a): 0 | Herbicidal Effect cockspur ([4]; 40 g/10a): 1 | Herbicidal Effect cockspur ([4]; 80 g/10a): 1 | Herbicidal Effect nobie ([5]; 3.13 g/10a): 5 | Herbicidal Effect nobie ([5]; 6.25 g/10a): 5 | Herbicidal Effect tamagayatsuri ([6]; 3.13 g/10a): 4 | Herbicidal Effect tamagayatsuri ([6]; 6.25 g/10a): 4

COC(=O)CSc1cc(N(C(=O)C2=C(C(=O)OC)CCCC2)C(=O)c2cccnc2)c(F)cc1Cl [compound 63]
Herbicidal Effect hotarui ([1]; 3.13 g/10a): 4 | Herbicidal Effect hotarui ([1]; 6.25 g/10a): 4 | Herbicidal Effect garden radish (garden radish; 40 g/10a): 4.5 | Herbicidal Effect garden radish (garden radish; 80 g/10a): 4.5 | Herbicidal Effect rice (rice; 40 g/10a): 1 | Herbicidal Effect rice (rice; 80 g/10a): 1 | Herbicidal Effect mehishiba ([2]; 40 g/10a): 1 | Herbicidal Effect mehishiba ([2]; 80 g/10a): 1 | Herbicidal Effect aobiyu ([3]; 40 g/10a): 5 | Herbicidal Effect aobiyu ([3]; 80 g/10a): 5 | Herbicidal Effect broad-leaved weed (broad-leaved weeds; 3.13 g/10a): 5 | Herbicidal Effect broad-leaved weed (broad-leaved weeds; 6.25 g/10a): 5 | Injury of Paddy (paddy rice; 3.13 g/10a): 0 | Injury of Paddy (paddy rice; 6.25 g/10a): 0 | Herbicidal Effect cockspur ([4]; 40 g/10a): 1 | Herbicidal Effect cockspur ([4]; 80 g/10a): 1 | Herbicidal Effect nobie ([5]; 3.13 g/10a): 5 | Herbicidal Effect nobie ([5]; 6.25 g/10a): 5 | Herbicidal Effect tamagayatsuri ([6]; 3.13 g/10a): 4 | Herbicidal Effect tamagayatsuri ([6]; 6.25 g/10a): 5
